Assay results taken from US20170224647A1, “NEW MDR1 INHIBITORS FOR OVERCOMING MULTIDRUG RESISTANCE” (UNIVERSITA' DEGLI STUDI DI PARMA, priority 2014, published 2017).

How the values were obtained:
MDR1 [1] = target: T1, MDR1 (Homo sapiens, UniProt P08183); experiment: MDR1-mediated accumulation of fluorescent calcein in A549 cells; type: cell-based; conditions: A549 human lung adenocarcinoma cells; FIG. 3A
T1 construct: lung squamous-cell carcinoma (SKMES) expressing high levels of MDR1 on the plasma membrane; endogenous in cells; host or cells: SKMES (lung squamous-cell carcinoma)
T1 sequence (P08183 whole entry): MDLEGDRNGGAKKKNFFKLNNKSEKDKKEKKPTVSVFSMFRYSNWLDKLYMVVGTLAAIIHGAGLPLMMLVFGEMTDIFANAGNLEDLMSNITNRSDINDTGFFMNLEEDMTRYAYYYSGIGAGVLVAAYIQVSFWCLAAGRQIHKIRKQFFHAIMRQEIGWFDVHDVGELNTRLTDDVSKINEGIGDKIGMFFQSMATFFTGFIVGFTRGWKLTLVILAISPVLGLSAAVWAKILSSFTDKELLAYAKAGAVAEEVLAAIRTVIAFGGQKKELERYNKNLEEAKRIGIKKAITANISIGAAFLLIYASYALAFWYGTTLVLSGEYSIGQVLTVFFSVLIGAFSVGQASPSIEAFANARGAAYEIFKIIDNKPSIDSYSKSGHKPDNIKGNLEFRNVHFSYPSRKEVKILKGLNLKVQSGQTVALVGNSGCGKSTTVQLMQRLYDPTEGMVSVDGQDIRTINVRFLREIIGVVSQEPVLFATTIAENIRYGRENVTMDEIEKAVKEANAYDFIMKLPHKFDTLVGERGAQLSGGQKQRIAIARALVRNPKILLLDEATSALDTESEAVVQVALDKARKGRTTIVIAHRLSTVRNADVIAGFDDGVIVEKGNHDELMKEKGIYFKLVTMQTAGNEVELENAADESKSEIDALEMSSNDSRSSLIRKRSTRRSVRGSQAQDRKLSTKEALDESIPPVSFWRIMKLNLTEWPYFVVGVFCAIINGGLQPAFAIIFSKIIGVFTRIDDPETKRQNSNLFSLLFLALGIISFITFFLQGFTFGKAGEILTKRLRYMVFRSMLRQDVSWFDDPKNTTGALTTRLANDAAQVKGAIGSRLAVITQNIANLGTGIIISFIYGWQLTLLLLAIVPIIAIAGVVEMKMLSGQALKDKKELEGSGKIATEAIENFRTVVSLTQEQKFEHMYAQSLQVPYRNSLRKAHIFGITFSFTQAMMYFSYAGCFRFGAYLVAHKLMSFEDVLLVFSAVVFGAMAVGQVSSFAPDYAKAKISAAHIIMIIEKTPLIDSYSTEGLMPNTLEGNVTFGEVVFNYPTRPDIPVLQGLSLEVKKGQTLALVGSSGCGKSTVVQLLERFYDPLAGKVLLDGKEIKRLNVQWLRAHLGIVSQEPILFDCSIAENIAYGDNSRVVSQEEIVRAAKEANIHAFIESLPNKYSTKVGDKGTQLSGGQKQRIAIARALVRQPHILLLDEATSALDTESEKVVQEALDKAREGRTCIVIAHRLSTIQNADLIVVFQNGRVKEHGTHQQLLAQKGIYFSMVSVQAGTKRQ
Procedure: (§1) The lung carcinoma cell lines A549 and SKMES are grown in RPMI, supplemented with 10% fetal calf serum (FCS), 2 mM glutamine (Gln), and antibiotics (Penicillin 100 UI/ml and Streptomycin 100 μg/ml). Cells are kept in a thermostat at a temperature of 37° C., in air saturated with water vapor, enriched with 5% CO2.
(§2) Once the growth medium has been removed from the cells, a PBS washing at 37° C. is carried out, and RPMI without phenol red containing antibiotics is added, 5% FCS, 10 mM HEPES and 2mM Glutamine in the presence/absence of Calcein AM or 1 μM Hoechst and possible inhibitors are added. At the end of the loading, two washings with cold PBS are carried out, RPMI without Calcein AM or Hoechst is added, and samples are read by using the fluorescence plate reader (Enspire, Perkin Elmer; A of excitation: 360 nm; λ of emission: 465 nm). The value provided by the instrument is proportional to the intracellular concentration of Calcein AM and Hoechst. Finally, the cells are treated with 5% TCA, followed by 0.5 N NaOH to solubilize the cells. The protein content is determined by the Bradford method, and it is used for normalizing the uptake values of Calcein AM and Hoechst. The accumulation of Calcein or Hoechst is therefore expressed as the fluorescence intensity/mg proteins.

MDR1 [2] = target: T1, MDR1; experiment: MDR1-mediated accumulation of fluorescent calcein in SKMES cells; type: cell-based; conditions: SKMES lung squamous-cell carcinoma cells; compared with PSC833; FIG. 3B
Procedure: as §1, §2

ABCG2 = target: T2, ABCG2 (Homo sapiens, UniProt Q9UNQ0); experiment: ABCG2-mediated outflow of fluorescent Hoechst in H460 cells; type: cell-based; conditions: H460 cells over-expressing ABCG2; FIG. 4
T2 construct: a model of human lung adenocarcinoma (H460) over-expressing such receptor; endogenous in cells; host or cells: H460 (human lung carcinoma)
T2 sequence (Q9UNQ0 1-655): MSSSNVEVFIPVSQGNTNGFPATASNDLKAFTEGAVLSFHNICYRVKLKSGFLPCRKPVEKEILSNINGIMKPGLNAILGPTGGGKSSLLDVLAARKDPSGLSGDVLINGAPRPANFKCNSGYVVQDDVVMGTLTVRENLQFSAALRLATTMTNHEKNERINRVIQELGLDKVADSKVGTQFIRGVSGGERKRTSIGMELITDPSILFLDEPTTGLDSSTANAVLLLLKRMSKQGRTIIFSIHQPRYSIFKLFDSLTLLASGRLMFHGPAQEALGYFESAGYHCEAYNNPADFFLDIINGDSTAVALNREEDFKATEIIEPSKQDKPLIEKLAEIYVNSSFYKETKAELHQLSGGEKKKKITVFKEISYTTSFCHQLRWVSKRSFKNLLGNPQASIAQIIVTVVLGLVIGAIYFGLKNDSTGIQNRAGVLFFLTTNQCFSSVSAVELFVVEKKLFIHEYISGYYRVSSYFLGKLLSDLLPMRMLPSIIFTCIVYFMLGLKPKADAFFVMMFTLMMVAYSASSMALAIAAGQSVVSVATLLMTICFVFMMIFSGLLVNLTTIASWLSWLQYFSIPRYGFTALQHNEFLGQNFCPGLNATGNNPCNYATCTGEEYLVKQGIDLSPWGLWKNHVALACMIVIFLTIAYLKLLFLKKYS
Procedure: as §2

ABCA1 = target: T3, ABCA1 (Mus musculus, UniProt P41233); experiment: ABCA1-mediated cholesterol outflow; type: cell-based; conditions: murine peritoneal macrophages, apolipoprotein A-I acceptor; FIG. 5B
T3 construct: the expression of the ABCA1 protein on the plasma membrane was stimulated by adding 22-OH cholesterol and 9-cis-retinoic acid; endogenous in cells; host or cells: murine peritoneal macrophages (primary)
T3 sequence (P41233 whole entry): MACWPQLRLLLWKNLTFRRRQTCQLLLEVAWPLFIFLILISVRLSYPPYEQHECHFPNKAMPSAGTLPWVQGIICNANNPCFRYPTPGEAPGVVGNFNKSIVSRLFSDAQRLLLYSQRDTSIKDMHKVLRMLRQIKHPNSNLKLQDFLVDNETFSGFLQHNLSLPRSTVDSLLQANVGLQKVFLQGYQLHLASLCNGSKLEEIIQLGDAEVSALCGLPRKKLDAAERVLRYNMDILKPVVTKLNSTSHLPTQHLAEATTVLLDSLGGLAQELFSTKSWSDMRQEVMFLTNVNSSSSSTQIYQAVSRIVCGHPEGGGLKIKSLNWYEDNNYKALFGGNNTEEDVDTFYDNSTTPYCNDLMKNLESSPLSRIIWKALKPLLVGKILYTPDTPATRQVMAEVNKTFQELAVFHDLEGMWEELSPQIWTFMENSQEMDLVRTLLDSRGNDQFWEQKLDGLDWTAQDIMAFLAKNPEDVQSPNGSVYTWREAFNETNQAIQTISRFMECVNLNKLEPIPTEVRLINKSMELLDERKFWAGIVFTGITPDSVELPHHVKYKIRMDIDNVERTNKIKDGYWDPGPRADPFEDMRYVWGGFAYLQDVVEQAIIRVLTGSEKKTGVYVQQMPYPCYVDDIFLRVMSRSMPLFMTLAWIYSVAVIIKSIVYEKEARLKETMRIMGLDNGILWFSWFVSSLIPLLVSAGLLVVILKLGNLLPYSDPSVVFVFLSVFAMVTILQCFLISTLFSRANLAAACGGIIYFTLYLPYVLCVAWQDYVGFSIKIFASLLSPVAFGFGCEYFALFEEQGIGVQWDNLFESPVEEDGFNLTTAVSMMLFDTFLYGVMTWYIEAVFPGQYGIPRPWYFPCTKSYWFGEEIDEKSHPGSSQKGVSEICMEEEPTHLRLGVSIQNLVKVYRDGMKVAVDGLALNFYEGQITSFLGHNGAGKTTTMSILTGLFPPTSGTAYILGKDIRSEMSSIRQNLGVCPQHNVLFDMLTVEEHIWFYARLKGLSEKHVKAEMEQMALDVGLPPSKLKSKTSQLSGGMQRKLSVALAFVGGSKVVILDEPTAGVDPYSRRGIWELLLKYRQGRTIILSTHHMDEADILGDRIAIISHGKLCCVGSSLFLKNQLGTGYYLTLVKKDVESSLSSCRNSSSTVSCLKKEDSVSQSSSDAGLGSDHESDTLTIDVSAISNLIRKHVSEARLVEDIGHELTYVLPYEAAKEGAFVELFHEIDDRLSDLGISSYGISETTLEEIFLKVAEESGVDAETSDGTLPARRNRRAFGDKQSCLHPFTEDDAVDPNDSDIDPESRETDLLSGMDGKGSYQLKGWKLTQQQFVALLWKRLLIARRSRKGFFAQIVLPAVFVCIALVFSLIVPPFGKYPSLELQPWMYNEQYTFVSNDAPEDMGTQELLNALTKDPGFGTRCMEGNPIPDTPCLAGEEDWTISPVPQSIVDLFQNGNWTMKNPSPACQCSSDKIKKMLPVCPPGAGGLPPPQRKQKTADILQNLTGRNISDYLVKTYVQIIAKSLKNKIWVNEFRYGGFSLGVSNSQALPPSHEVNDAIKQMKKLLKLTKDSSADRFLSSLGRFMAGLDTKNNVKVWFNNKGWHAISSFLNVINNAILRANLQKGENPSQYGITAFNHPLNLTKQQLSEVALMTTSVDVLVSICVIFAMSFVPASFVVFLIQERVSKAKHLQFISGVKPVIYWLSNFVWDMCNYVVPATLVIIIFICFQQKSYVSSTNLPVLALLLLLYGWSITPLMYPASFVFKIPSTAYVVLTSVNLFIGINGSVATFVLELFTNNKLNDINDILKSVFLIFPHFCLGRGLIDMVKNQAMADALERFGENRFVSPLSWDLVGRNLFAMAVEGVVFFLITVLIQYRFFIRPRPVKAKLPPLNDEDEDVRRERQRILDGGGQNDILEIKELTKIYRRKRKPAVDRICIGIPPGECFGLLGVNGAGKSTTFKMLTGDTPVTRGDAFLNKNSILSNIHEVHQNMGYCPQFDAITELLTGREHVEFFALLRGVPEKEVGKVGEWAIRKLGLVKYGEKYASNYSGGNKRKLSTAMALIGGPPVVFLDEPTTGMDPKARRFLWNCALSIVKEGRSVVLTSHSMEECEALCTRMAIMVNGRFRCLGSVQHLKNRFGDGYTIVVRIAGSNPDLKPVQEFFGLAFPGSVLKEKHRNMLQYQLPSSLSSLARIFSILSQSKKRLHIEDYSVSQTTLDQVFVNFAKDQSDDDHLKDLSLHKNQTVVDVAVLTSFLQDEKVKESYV
Procedure: Murine peritoneal macrophages were seeded in da 24-well plates, each containing 10^6 cell/well in 10% RPMI of fetal bovine serum (FBS). After 24 h, following a PBS washing, the cells were incubated with radiolabeled medium containing [3H]-cholesterol at a concentration of 2 μCi/ml in a medium supplemented with FBS 2% in the presence of the inhibitor of the esterifying enzyme ACAT (SAH58035) at a final concentration of 2 μg/ml in order to maintain all the intracellular cholesterol in the free form and the ABCA1 substrate in the outflow process. At the completion of the 24-hour staining, after the PBS washing, the cells were incubated with an equilibration medium composed of RPMI, 0.2% albumin, and the ACAT inhibitor. […] The filtered medium was collected and transferred into a vial, together with the scintillation liquid for the subsequent reading at the β-counter for the measurement of the radioactivity present in the cultural medium, which is an index of the free cholesterol excreted by the cells. The outflow percentage is calculated on the total radioactivity which is present in the cell by the following formula: % outflow=(average cpm/total cpm of the monolayer)×100. Each experimental condition was carried out in triplicates, and data was expressed as mean±standard deviation.

ABCG1 = target: T4, ABCG1 (Homo sapiens, UniProt P45844); experiment: ABCG1-mediated cholesterol outflow; type: cell-based, hamster; conditions: CHO-L3 over-expressing ABCG1 vs CHO-K1, HDL acceptor; FIG. 5A
T4 construct: expressed in transfected cells; host or cells: CHO-L3 (derived from hamster ovary CHO-K1, which serves as control)
Procedure: In order to assess the ABCG1-mediated outflow, control hamster ovary cells CHO-K1 and CHO-L3 over-expressing the ABCG1 protein in Ham's medium F12 with 10% FBS were seeded in parallel in sterile 24-well plates. After 24 h, both cell lines were labeled with 10% FBS medium containing 1 μCi/ml [3H]-cholesterol. At the end of the labelling period (24 h), both cell lines were washed with PBS and equilibrated during 90 minutes with medium supplemented with 0.2% albumin. At the end of the equilibration, the cells were treated in the absence or presence of our compound AIF1 during 2 hours, and incubated for the next 6 hours e with the cholesterol acceptors, HDLs, at a concentration of 12.5 μg/ml. The quantification of the tritiated cholesterol secreted by the cells in the medium was determined as described in the previous paragraph. In particular, the contribution of the ABCG1 transporter to the cholesterol outflow was calculated as the difference between the outflow percentages obtained from the cell line CHO-L3 over-expressing ABCG1 and those obtained from the control cell line CHO-K1. Each experimental condition was carried out in triplicates, and data was expressed as mean±standard deviation.

SKMES cells = experiment: Intracellular doxorubicin by confocal microscope; type: cell-based, human
Procedure: SKMES cells were seeded on cover glasses and incubated with culture medium in a thermostat for 24 h. […]
Images were taken by using a confocal microscope (LSM 510 Meta scan integrated with a reversed microscope Carl Zeiss, Jena Germany), with a 43×/1.30 oil immersion lens.
Fluorescence of doxorubicin was excited with a 488 nm argon laser and its emission was collected by a 530 nm filter. During the analysis of the various samples, the confocal settings (excitation, laser power, detection range, and pinhole size) were kept unaltered.

tumoral cell = experiment: Intracellular concentration of doxorubicin by LC-MS/MS; type: cell-based; conditions: after AIF1 treatment compared to untreated cells; FIG. 8
Procedure: The intracellular content of Doxorubicin and AIF-1 may be determined by liquid chromatography-tandem mass spectrometry (LC-MS/MS) of samples extracted with absolute ethanol. In particular, after the treatment with the drugs, the culture medium is removed, and 3 washings of the cell monolayer with PBS are carried out. Then, the cells are incubated for ten minutes at room temperature with absolute ethanol, which is then analyzed by a LC-MS/MS technique. Values were normalized for the protein content assessed after solubilization of the cell monolayer with 0.5N NaOH and are expressed as pmoles/mg proteins.
Doxorubicin and AIF-1 concentrations in the samples of cell extracts were determined by liquid chromatography-tandem mass spectrometry (LCMS/MS) by using a mass spectrometer.
The samples extracted in ethanol were filtered on a 0.2 μm cellulose filter and analyzed by liquid chromatography-tandem mass spectrometry (LC-MS/MS). […]
The full scan mass spectra were recorded in the 250-900 m/z range, using a 0.1 stepsize and 1 s scan time in the positive ion mode for doxorubicin and atenolol (ATN, used as the internal standard) and in the negative ion mode for AIF1. […]

`CC(C)(Sc1cc(C(C)(C)C)c(OC(=O)CCC(=O)O)c(C(C)(C)C)c1)Sc1cc(C(C)(C)C)c(OC(=O)CCC(=O)O)c(C(C)(C)C)c1` [AIF1] was tested, and the “intracellular concentration of calcein (MDR1-mediated cell outflow of fluorescent calcein)” value (MDR1 [1]) was “significantly and dose-dependent increases”, the “effect on MDR1-mediated accumulation of fluorescent calcein” value (MDR1 [2]) was “highly effective” and the “accumulation/extrusion of fluorescent Hoechst (ABCG2 substrate)” value (ABCG2) was “did not show any effect”. The “outflow of cholesterol mediated by ABCA1” value (ABCA1) was “does not show any effect”, the “outflow of cholesterol mediated by ABCG1” value (ABCG1) was “does not show any effect” and the “intracellular fluorescent signal of doxorubicin” value (SKMES cells; after 60 and 90 minutes of doxorubicin in the presence of AIF1, FIGS. 7B, 7C) was “remains almost unaltered”. The “intracellular fluorescent signal of doxorubicin” value (SKMES cells; after 30 minutes doxorubicin, vs cells not treated with the compound, FIG. 7A) was “considerably increased” and the “concentration of intracellular doxorubicin” value (tumoral cell) was “significantly higher”.
